The text below walks through data of patent US20040122096A1, “Use of inhibitors of the cellular Na+/H+ exchanger (NHE) for preparing a medicament for normalizing serum lipids” (Hoechst Aktiengesellschaft, priority 1996, published 2004).

The assay concerns male New Zealand white rabbits. Put plainly: Serum total cholesterol and lipoprotein fractions in rabbits after 30 days feeding. The class given is in vivo, rabbit. The settings on record: mean ± SEM. From the text:
This antihyperlipidemic action is shown for an NHE inhibitor, 4-isopropyl-3-methylsulfonylbenzoylguanidine methanesulfonate (Hoe 642), in the following table, male New Zealand white rabbits (n=28) having a weight of 3-4 kg being used and divided into four groups of 7 animals in each case randomized as described below: 1) standard rabbit feed (®Altromin 2834), 2) atherogenic diet having a content of 0.25% cholesterol and 3% coconut oil, 3) standard rabbit feed+Hoe 642 (0.1%), 4) atherogenic diet+Hoe 642 (0.1%). Blood samples were taken once after 30 days feeding by puncture of the auricular artery. Serum was obtained from the blood. The total cholesterol was measured from the serum by means of the CHOD (cholesterol oxidase)-PAP method (Merckotest, Merck Diagnostics, E. Merck, 64271 Darmstadt, Germany). The separation of the lipoproteins was carried out, likewise from the serum, by FPLC (fast protein liquid chromatography) method (März et al. 1993, Clin. Chem. 39/11:2276-2281).

[1] abbreviates: atherogenic diet (0.25% cholesterol, 3% coconut oil) + Hoe 642 0.1%.
The mark [2] stands for this setting: normal diet (standard rabbit feed) + Hoe 642 0.1%.

Each structure is given as a SMILES string.

For `CC(C)c1ccc(C(=O)NC(=N)N)cc1S(C)(=O)=O` [HOE 642, 4-isopropyl-3-methylsulfonylbenzoylguanidine methanesulfonate], under setting [1], the “LDL (serum cholesterol fraction)” value was determined as 2.1 ± 0.2 mmol/L, the “Total cholesterol (serum)” value was determined as 7.95 ± 0.89 mmol/L and the “VLDL (serum cholesterol fraction)” value was 4.6 ± 0.6 mmol/L. Further, under setting [2], the “LDL (serum cholesterol fraction)” value was determined as 0.23 ± 0.04 mmol/L, the “Total cholesterol (serum)” value was 0.69 ± 0.1 mmol/L and the “VLDL (serum cholesterol fraction)” value worked out at 0.05 ± 0.02 mmol/L.
